Bounds are passed on as bounds.

In the assay the target is T1, recombinant murine Aurora A enzyme (Mus musculus, UniProt P97477).
T1 construct: hexahistidine (His6) (N); made in house; host or cells: insect cells, baculovirus (Bac-to-Bac, Invitrogen)
T1 sequence (P97477 whole entry): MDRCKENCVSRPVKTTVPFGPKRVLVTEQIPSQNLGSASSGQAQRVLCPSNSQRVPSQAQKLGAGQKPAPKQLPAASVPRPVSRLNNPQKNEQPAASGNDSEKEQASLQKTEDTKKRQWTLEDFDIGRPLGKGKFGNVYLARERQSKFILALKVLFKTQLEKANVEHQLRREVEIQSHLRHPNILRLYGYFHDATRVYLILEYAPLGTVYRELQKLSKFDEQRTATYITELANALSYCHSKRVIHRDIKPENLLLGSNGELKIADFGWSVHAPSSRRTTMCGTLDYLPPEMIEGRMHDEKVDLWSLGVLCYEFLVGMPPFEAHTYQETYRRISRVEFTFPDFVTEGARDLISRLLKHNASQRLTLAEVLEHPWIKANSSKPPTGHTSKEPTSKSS
Briefly: Aurora A DELFIA Kinase Assay. It counts as biochemical. The following applies: mouse Aurora A, 250 μM ATP; threshold less than or equal to 100 nM; read-out: IC50.
On to `CN(C)C1CN(C(=O)c2cccc(Nc3ncc4c(n3)-c3ccc(Cl)cc3C(c3c(F)cccc3F)=NC4)c2)C1` [Compound I-204, 9-chloro-7-(2,6-difluorophenyl)-N-(3-{[3-(dimethylamino)azetidin-1-yl]carbonyl}phenyl)-5H-pyrimido[5,4-d][2]benzazepin-2-amine], for which the IC50 (in general, the concentration that gives 50% inhibition) was at most 100 nM.
For `O=C(c1ccc(Nc2ncc3c(n2)-c2ccc(Cl)cc2C(c2ccccc2F)=NC3)cc1Cl)N1CCN(CCN2CCCC2)CC1` [Compound I-213, 9-chloro-N-(3-chloro-4-{[4-(2-pyrrolidin-1-ylethyl)piperazin-1-yl]carbonyl}phenyl)-7-(2-fluorophenyl)-5H-pyrimido[5,4-d][2]benzazepin-2-amine], the IC50 was at most 100 nM.
For `COc1ccc2c(c1)C(c1ccccc1F)=NCc1cnc(Nc3ccc(C(=O)N4CCC(N(C)C)C4)cc3)nc1-2` (centres unmarked) [Compound I-93, (3-Dimethylamino-pyrrolidin-1-yl)-{4-[7-(2-fluoro-phenyl)-9-methoxy-5H-benzo[c]pyrimido[4,5-e]azepin-2-ylamino]-phenyl}-methanone] the value was at most 100 nM; for `CC1CN(C(=O)c2ccc(Nc3ncc4c(n3)-c3ccc(Cl)cc3C(c3c(F)cccc3Cl)=NC4)cc2)CCN1` (centres unmarked) [Compound I-323, 9-chloro-7-(2-chloro-6-fluorophenyl)-N-{4-[(3-methylpiperazin-1-yl)carbonyl]phenyl}-5H-pyrimido[5,4-d][2]benzazepin-2-amine], at most 100 nM; for `CN(C)C1CCCN(C(=O)c2ccc(Nc3ncc4c(n3)-c3ccc(Cl)cc3C(c3c(F)cccc3F)=NC4)cc2)C1` (centres unmarked) [Compound I-293, 9-chloro-7-(2,6-difluorophenyl)-N-(4-{[3-(dimethylamino)piperidin-1-yl]carbonyl}phenyl)-5H-pyrimido[5,4-d][2]benzazepin-2-amine], at most 100 nM.
For the compound `CCN(CC)CCCN1CCN(C(=O)c2ccc(Nc3ncc4c(n3)-c3ccc(Cl)cc3C(c3ccccc3F)=NC4)cc2)CC1` [Compound I-208, 9-chloro-N-[4-({4-[3-(diethylamino)propyl]piperazin-1-yl}carbonyl)phenyl]-7-(2-fluorophenyl)-5H-pyrimido[5,4-d][2]benzazepin-2-amine], the half-inhibitory concentration (IC50) is at most 100 nM.
For `NC1CCN(C(=O)c2ccc(Nc3ncc4c(n3)-c3ccc(Cl)cc3C(c3ccccc3F)=NC4)cc2)CC1` [Compound I-17, (4-Amino-piperidin-1-yl)-{4-[9-chloro-7-(2-fluoro-phenyl)-5H-benzo[c]pyrimido[4,5-e]azepin-2-ylamino]-phenyl}-methanone] the value was at most 100 nM; for `CNC1CCN(C(=O)c2ccc(Nc3ncc4c(n3)-c3ccc(Cl)cc3C(c3c(F)cccc3Cl)=NC4)cc2)C1` (centres unmarked) [Compound I-327, 9-chloro-7-(2-chloro-6-fluorophenyl)-N-(4-{[3-(methylamino)pyrrolidin-1-yl]carbonyl}phenyl)-5H-pyrimido[5,4-d][2]benzazepin-2-amine], at most 100 nM.
For `CNC1CN(C(=O)c2ccc(Nc3ncc4c(n3)-c3ccc(Cl)cc3C(c3c(F)cccc3Cl)=NC4)cc2)C1` [Compound I-351, 9-chloro-7-(2-chloro-6-fluorophenyl)-N-(4-{[3-(methylamino)azetidin-1-yl]carbonyl}phenyl)-5H-pyrimido[5,4-d][2]benzazepin-2-amine] the value was at most 100 nM; for `CNC1CCN(C(=O)c2ccc(Nc3ncc4c(n3)-c3ccc(Cl)cc3C(c3ccccc3C(F)(F)F)=NC4)cc2)C1` (centres unmarked) [Compound I-290, 9-chloro-N-(4-{[3-(methylamino)pyrrolidin-1-yl]carbonyl}phenyl)-7-[2-(trifluoromethyl)phenyl]-5H-pyrimido[5,4-d][2]benzazepin-2-amine], at most 100 nM.
Take `CC1CN(C(=O)c2ccc(Nc3ncc4c(n3)-c3ccc(Cl)cc3C(c3ccccc3F)=NC4)cc2)CCN1` (centres unmarked) [Compound I-113, {4-[9-Chloro-7-(2-fluoro-phenyl)-5H-benzo[c]pyrimido[4,5-e]azepin-2-ylamino]-phenyl}-(3-methyl-piperazin-1-yl)-methanone]: the IC50 was at most 100 nM.
Under `CN(C)C1CN(C(=N)c2ccc(Nc3ncc4c(n3)-c3ccc(Cl)cc3C(c3c(F)cccc3F)=NC4)cc2)C1` [Compound I-267, 9-chloro-7-(2,6-difluorophenyl)-N-{4-[[3-(dimethylamino)azetidin-1-yl](imino)methyl]phenyl}-5H-pyrimido[5,4-d][2]benzazepin-2-amine] stands at most 100 nM.
Take `CNC1CCCN(C(=O)c2ccc(Nc3ncc4c(n3)-c3ccc(Cl)cc3C(c3c(F)cccc3Cl)=NC4)cc2)C1` (centres unmarked) [Compound I-326, 9-chloro-7-(2-chloro-6-fluorophenyl)-N-(4-{[3-(methylamino)piperidin-1-yl]carbonyl}phenyl)-5H-pyrimido[5,4-d][2]benzazepin-2-amine]: the IC50 was at most 100 nM.
With `CNC(=O)C1(N)CCN(C(=O)c2ccc(Nc3ncc4c(n3)-c3ccc(Cl)cc3C(c3c(F)cccc3F)=NC4)cc2)CC1` [Compound I-341, 4-amino-1-(4-{[9-chloro-7-(2,6-difluorophenyl)-5H-pyrimido[5,4-d][2]benzazepin-2-yl]amino}benzoyl)-N-methylpiperidine-4-carboxamide], the concentration for half-maximal inhibition (IC50) was at most 100 nM.
Under `Cc1ccccc1C1=NCc2cnc(Nc3ccc(C(=O)NCCN4CCOCC4)cc3)nc2-c2ccc(Cl)cc21` [Compound I-31, 4-(9-Chloro-7-o-tolyl-5H-benzo[c]pyrimido[4,5-e]azepin-2-ylamino)-N-(2-morpholin-4-yl-ethyl)-benzamide] stands at most 100 nM; under `CN(CCN)C(=O)c1ccc(Nc2ncc3c(n2)-c2ccc(Cl)cc2C(c2ccccc2F)=NC3)cc1` [Compound I-2, N-(2-Amino-ethyl)-4-[9-chloro-7-(2-fluoro-phenyl)-5H-benzo[c]pyrimido[4,5-e]azepin-2-ylamino]-N-methyl-benzamide], at most 100 nM; under `NC1CN(C(=O)c2ccc(Nc3ncc4c(n3)-c3ccc(Cl)cc3C(c3c(F)cccc3F)=NC4)cc2)C1` [Compound I-278, N-{4-[(3-aminoazetidin-1-yl)carbonyl]phenyl}-9-chloro-7-(2,6-difluorophenyl)-5H-pyrimido[5,4-d][2]benzazepin-2-amine], at most 100 nM.
Under `NC1CCN(C(=O)c2ccc(Nc3ncc4c(n3)-c3ccc(Cl)cc3C(c3ncccc3F)=NC4)cc2)CC1` [Compound I-304, N-{4[(4-aminopiperidin-1-yl)carbonyl]phenyl}-9-chloro-7-(3-fluoropyridin-2-yl)-5H-pyrimido[5,4-d][2]benzazepin-2-amine] stands at most 100 nM; under `CNC(=O)c1ccc(Nc2ncc3c(n2)-c2ccc(Cl)cc2C(c2c(F)cccc2F)=NC3)cc1` [Compound I-334, 4-{[9-chloro-7-(2,6-difluorophenyl)-5H-pyrimido[5,4-d][2]benzazepin-2-yl]amino}-N-methylbenzamide], at most 100 nM; under `C[C@@H]1CN(C(=O)c2ccc(Nc3ncc4c(n3)-c3ccc(Cl)cc3C(c3c(F)cccc3F)=NC4)cc2)CCN1` [Compound I-194, {4-[9-Chloro-7-(2,6-difluoro-phenyl)-5H-benzo[c]pyrimido[4,5-e]azepin-2-ylamino]-phenyl}-(3(R)-methyl-piperazin-1-yl)-methanone], at most 100 nM.
For `NC1CCN(C(=O)c2ccc(Nc3ncc4c(n3)-c3ccc(Cl)cc3C(c3ncccc3F)=NC4)cc2)C1` (centres unmarked) [Compound I-305] the value was at most 100 nM; for `CN(C)CCN(C)C(=O)c1ccc(Nc2ncc3c(n2)-c2ccc(Cl)cc2C(c2c(F)cccc2F)=NC3)cc1` [Compound I-247, 4-{[9-chloro-7-(2,6-difluorophenyl)-5H-pyrimido[5,4-d][2]benzazepin-2-yl]amino}-N-[2-(dimethylamino)ethyl]-N-methylbenzamide], at most 100 nM; for `Cc1csc(Nc2ncc3c(n2)-c2ccc(C(=O)O)cc2C(c2c(F)cccc2F)=NC3)n1` [Compound I-357, 7-(2,6-difluorophenyl)-2-[(4-methyl-1,3-thiazol-2-yl)amino]-5H-pyrimido[5,4-d][2]benzazepine-9-carboxylic acid], at most 100 nM.
As for `CN(C)CCCN(C)C(=O)c1ccc(Nc2ncc3c(n2)-c2ccc(Cl)cc2C(c2c(F)cccc2F)=NC3)cc1` [Compound I-185, 4-[9-Chloro-7-(2,6-difluoro-phenyl)-5H-benzo[c]pyrimido[4,5-e]azepin-2-ylamino]-N-(3-dimethylamino-propyl)-N-methyl-benzamide], the IC50 was at most 100 nM.
For `CCOC(=O)[C@@H](CCN)NC(=O)c1ccc(Nc2ncc3c(n2)-c2ccc(Cl)cc2C(c2c(F)cccc2F)=NC3)cc1` [Compound I-309, ethyl (2R)-4-amino-2-[(4-{[9-chloro-7-(2,6-difluorophenyl)-5H-pyrimido[5,4-d][2]benzazepin-2-yl]amino}benzoyl)amino]butanoate], the IC50 is at most 100 nM.
For `O=C(NCCN1CCOCC1)c1ccc(Nc2ncc3c(n2)-c2ccc(Cl)cc2C(c2ccccc2F)=NC3)cc1` [Compound I-29, 4-[9-Chloro-7-(2-fluoro-phenyl)-5H-benzo[c]pyrimido[4,5-e]azepin-2-ylamino]-N-(2-morpholin-4-yl-ethyl)-benzamide] the value was at most 100 nM; for `COc1cccc(F)c1C1=NCc2cnc(Nc3ccc(C(=O)N4CCNC(C)C4)cc3)nc2-c2ccc(Cl)cc21` (centres unmarked) [Compound I-232], at most 100 nM.
Under `O=C(O)c1ccc(Nc2ncc3c(n2)-c2ccc(Cl)cc2C(c2c(F)cccc2Cl)=NC3)cc1` [Compound I-174, 4-{[9-Chloro-7-(2-chloro-6-fluorophenyl)-5H-pyrimido-[5,4-d][2]benzazepin-2-yl]amino}benzoic acid] stands at most 100 nM; under `O=C(O)C1CNCCN1C(=O)c1ccc(Nc2ncc3c(n2)-c2ccc(Cl)cc2C(c2c(F)cccc2F)=NC3)cc1` (centres unmarked) [Compound I-219, 1-(4-{[9-chloro-7-(2,6-difluorophenyl)-5H-pyrimido[5,4-d][2]benzazepin-2-yl]amino}benzoyl)piperazine-2-carboxylic acid], at most 100 nM.
